Data taken from PMC11077991, “The small molecule CBR-5884 inhibits the Candida albicans phosphatidylserine synthase” (mBio, 2024).
Where “and” joins values, the source holds several entries; their conditions need not be identical. Equal entries are not always repeated. Where two headings read alike, the source gives them in different places.

Experiments:
[1] = molecular target: purified C. albicans Cho1 (phosphatidylserine synthase) (Candida albicans, UniProt A0A1D8PF32); experiment: malachite-green-based nucleotidase-coupled assay, dose-response; type: biochemical; details: top 200 µM, 3 h at 30°C, three replicates
purified C. albicans Cho1 (phosphatidylserine synthase), sequence (A0A1D8PF32 entry or part of it): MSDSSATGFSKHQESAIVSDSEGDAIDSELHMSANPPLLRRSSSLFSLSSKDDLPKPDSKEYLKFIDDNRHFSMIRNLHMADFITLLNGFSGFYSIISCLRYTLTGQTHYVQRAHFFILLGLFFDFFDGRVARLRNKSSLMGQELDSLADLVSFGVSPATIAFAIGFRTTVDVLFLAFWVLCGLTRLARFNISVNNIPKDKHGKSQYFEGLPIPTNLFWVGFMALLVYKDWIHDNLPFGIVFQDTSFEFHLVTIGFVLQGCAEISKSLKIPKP
Experimental: A malachite-green-based nucleotidase-coupled assay was used to measure the PS synthesis activity of Cho1 (Fig. 1B). Cho1 catalyzes the production of PS and cytidylmonophosphate (CMP) from CDP-DAG and serine, where CMP can then be recognized and cleaved by the nucleotidase CD73 to release inorganic phosphate, which is subsequently detected by malachite green. To test whether this malachite-green-based assay can reflect Cho1 activity, a time-course test was performed with a fixed amount of purified Cho1 in the presence of substrates (Fig. 1C).
The bioactives library was purchased from Selleck in 2014, and the remaining libraries (anti-infectives and mechanism of action libraries) were assembled from compounds available at the Chemical Biology and Therapeutics Department at St. Jude Children’s Research Hospital. The anti-infectives library contains a curated list of antimicrobials and antiviral agents ([95]). The bioactive library has a compilation of compounds acquired from commercial sources and external academic collaborators. The mechanism of action set is a dynamic set of well-annotated compounds with comprehensive coverage of human targets and mechanisms of action ([96]). All compounds were dissolved in DMSO and 100 nL was transferred to a 384-well clear bottom plate (ThermoFisher Scientific, cat# 265203) using a Beckman Echo 650 acoustic liquid handler. Equal volumes of either the selective CD73 nucleotidase inhibitor AB680 at a final concentration of 1 µM (MedChemExpress, cat# HY-125286) or DMSO were used as positive and negative controls, respectively. A total of 30–35 ng of purified Cho1 protein was used in each reaction in 50 mM Tris-HCl (pH 8.0) for primary screening, combined with 100 µM CDP-DAG (Avanti, cat# 870510), 5 mM serine, 0.4 ng CD73 nucleotidase (R&D systems, cat# EA002), 1 mM MnCl2, 0.1% APX-100, and 0.1% digitonin, in a total volume of 10 µL. Counter screen reactions were set up by replacing only the purified Cho1 with 150 µM CMP, with all other components remaining constant. The 10 µL primary and counter screening reactions were delivered to each well of 384-well assay plates containing pre-aliquoted compounds from the library using a Multidrop Combi (ThermoFisher Scientific). […] After media transfer, assay plates were incubated for 3 h at 30°C. Plates were then removed and 32 µL of malachite green mixture [6 µL malachite A (2%, wt/vol, ammonium molybdate and 20%, vol/vol, sulfuric acid in H2O) +20 µL H2O + 6 µL malachite B (0.1%, wt/vol, malachite green oxalate and 0.5%, wt/vol, polyvinyl alcohol in H2O)] were added to each well via a MultiDrop Combi and incubated for an additional 10 min at room temperature. After incubation, plates were briefly centrifuged at 500 × g and absorbance at 620 nm was then measured using a Cytation7 plate reader (Biotek, Winooski, VT). Raw absorbance values of the compounds were normalized to DMSO (0% inhibition) and AB680 (100% inhibition) from both primary and counter screens, and % Δinhibition was calculated by […]. Z-factors for each plate were calculated using the in-house program RISE (Robust Investigation of Screening Experiments). All non-PAINs compounds that had >80% Δinhibition progressed to dose-response testing (82 total compounds). Dose-response experiments were performed in triplicate as described above using a 10-point, threefold serial dilution with the top concentration for each compound tested being 200 µM (range: 0.010161–200 μM). The absorbance at 620 nm was then measured using a PHERAstar FS multilabel reader (BMG, Cary, NC). Raw values were once again normalized to DMSO (0% inhibition) and AB680 (100% inhibition) and Z-factors for each plate were calculated using RISE. […]

[2] = tested on: crude membrane containing Cho1; experiment: radioactive PS synthase assay on crude membrane containing Cho1; type: biochemical, Candida albicans; details: compounds at 1 mM
Experimental: Enzymatic activity of Cho1 in the presence of the compounds was measured using the radioactive PS synthase assay. For purified Cho1, the procedure was fully described in reference ([33]). Briefly, 1–2 μg of purified Cho1 was added to the reaction containing 50 mM Tris-HCl (pH 8.0), 1 mM MnCl2, 0.1% Triton X-100, 0.04% digitonin, 0.1 mM (4.7 mol %), 16:0 CDP-DAG (Avanti, cat# 870510), and 0.5 mM L-serine [spiked with 5% (by volume) L-[^3H]-serine (15 Ci/mmol)] at a total volume of 100 µL, in the presence of 100 µM of each compound or equivalent DMSO solvent. The reaction was conducted at 30°C for 30 min, and [^3H]PS produced in the reaction was measured using a liquid scintillation counter. For crude membrane samples, crude membrane preps from wildtype and cho1ΔΔ strains were collected and assayed as described in reference ([33]) with the exception that 2 mM L-serine [spiked with 5% (by volume) L-[^3H]-serine (15 Ci/mmol)] was used in each reaction. A final concentration of 1 mM of each compound was used for the crude membrane samples.

[3] = Best-fit IC50, inhibition of Cho1, 10-point dose-response

Structure (SMILES)	IC50 ([1]; 10-point dose-response, read-out: Best-fit IC50, inhibition of Cho1) [µM]	PS production in native crude membranes [2]	IC50 [1, 3]
O=C(C1CC1)N1CCN(Cn2sc3ccccc3c2=O)CC1 [LOC14]	~75.5	decreased PS production	
CCOC(=O)c1sc(NC(=O)c2ccco2)c(SC#N)c1C [CBR-5884]		decreased PS production	≤ 20 µM and ~8.44 µM
O=c1c2ccccc2[se]n1-c1ccccc1 [Ebselen]		decreased PS production	≤ 20 µM and ~11.1 µM and 11.1 µM
